Values quoted from earlier work as cited in article PMC11696226 (Nature Communications, 2025).
Read-outs that look alike come from different tables or passages of the source.

System: metastatic TNBC / breast cancer

Compound | median OS (TNBC, pooled EMBRACE and Study 301) [month] | median PFS (TNBC, pooled EMBRACE and Study 301, 199 patients) [month] | median OS (ASCENT, metastatic TNBC) [months] | median PFS (ASCENT, metastatic TNBC, ≥2 lines of chemotherapy) [months] | HR for OS vs conventional chemotherapy (ASCENT, p < 0.001) | HR for PFS vs conventional chemotherapy (ASCENT, p < 0.001)
C=C1C[C@@H]2CC[C@@]34C[C@H]5O[C@H]6[C@@H](O3)[C@H]3O[C@H](CC[C@@H]3O[C@H]6[C@H]5O4)CC(=O)C[C@@H]3[C@@H](OC)[C@@H](C[C@H](O)CN)O[C@H]3C[C@H]3O[C@@H](CC[C@@H]1O2)C[C@@H](C)C3=C [eribulin] | 12.4 | 2.8 | – | – | – | –
SG: antibody-drug conjugate | – | – | 12.1 | 5.6 | 0.48 | 0.41
